Species on record: Rattus norvegicus
Experiment: DrugMatrix - Regimen: Daily Repeat
Type: toxicity, organism-based, Sprague-Dawley
Parameters: regimen Daily Repeat, gender Male, age 6-8 weeks
Details: in vivo, po, route oral GAVAGE, vehicle .5 % CMC; for ABSOLUTE BASOPHIL / ABSOLUTE EOSINOPHIL / ABSOLUTE LYMPHOCYTE / ABSOLUTE MONOCYTE / ABSOLUTE SEGMENTED NEUTROPHIL / BASOPHIL / EOSINOPHIL / ERYTHROCYTE COUNT / HEMATOCRIT / HEMOGLOBIN / LEUKOCYTE COUNT / LYMPHOCYTE / MEAN CORPUSCULAR HEMOGLOBIN / MEAN CORPUSCULAR HEMOGLOBIN CONCENTRATION / MEAN CORPUSCULAR VOLUME / MONOCYTE / NEUTROPHIL / NUCLEATED RED BLOOD CELLS / PLATELET COUNT: tissue Blood; for ALANINE AMINOTRANSFERASE / ALBUMIN / ALKALINE PHOSPHATASE / ASPARTATE AMINOTRANSFERASE / BLOOD UREA NITROGEN / CARBON DIOXIDE / CHLORIDE / CHOLESTEROL / CREATINE PHOSPHOKINASE / CREATININE / GLUCOSE / LACTATE DEHYDROGENASE / LIPASE / PHOSPHORUS / POTASSIUM / SODIUM / TOTAL BILIRUBIN / TOTAL PROTEIN / URIC ACID: tissue Plasma
[1] = 100 mg/kg, 120 h, dose level Low, time 5 day
[2] = 1500 mg/kg, 72 h, dose level High, time 3 day
[3] = 1500 mg/kg, 120 h, dose level High, time 5 day

## O=C(O)CCc1nc(-c2ccccc2)c(-c2ccccc2)o1 [OXAPROZIN]
[1]
  ABSOLUTE BASOPHIL: 0 CELLS/uL
  ABSOLUTE EOSINOPHIL: 50.33 CELLS/uL
  ABSOLUTE LYMPHOCYTE: 11457 CELLS/uL
  ABSOLUTE MONOCYTE: 176 CELLS/uL
  ABSOLUTE SEGMENTED NEUTROPHIL: 1916.67 CELLS/uL
  BASOPHIL: 0%
  EOSINOPHIL: 0.33%
  ERYTHROCYTE COUNT: 5.42 x10E6/uL
  HEMATOCRIT: 34.23%
  HEMOGLOBIN: 13.93 G/DL
  LEUKOCYTE COUNT: 13.6 x10E3/uL
  LYMPHOCYTE: 84%
  MEAN CORPUSCULAR HEMOGLOBIN: 25.7 pg
  MEAN CORPUSCULAR HEMOGLOBIN CONCENTRATION: 40.67 G/DL
  MEAN CORPUSCULAR VOLUME: 63.1 fL
  MONOCYTE: 1.33%
  NEUTROPHIL: 14.33%
  NUCLEATED RED BLOOD CELLS: 0 /100WBC
  PLATELET COUNT: 1354 x10E3/uL
  ALANINE AMINOTRANSFERASE: 54.67 u/L
  ALBUMIN: 4.3 G/DL
  ALKALINE PHOSPHATASE: 418.33 u/L
  ASPARTATE AMINOTRANSFERASE: 81.67 u/L
  BLOOD UREA NITROGEN: 16 mg/dL
  CARBON DIOXIDE: 26.67 mmol/L
  CHLORIDE: 102.67 MEQ/L
  CHOLESTEROL: 57.67 mg/dL
  CREATINE PHOSPHOKINASE: 284.33 u/L
  CREATININE: 0.2 mg/dL
  GLUCOSE: 154 mg/dL
  LACTATE DEHYDROGENASE: 102.67 u/L
  LIPASE: 9.33 u/L
  PHOSPHORUS: 12.87 mg/dL
  POTASSIUM: 6.84 MEQ/L
  SODIUM: 145.4 MEQ/L
  TOTAL BILIRUBIN: 0.23 mg/dL
  TOTAL PROTEIN: 6.2 G/DL
  URIC ACID: 1.83 mg/dL
[2]
  ABSOLUTE BASOPHIL: 0 CELLS/uL
  ABSOLUTE EOSINOPHIL: 0 CELLS/uL
  ABSOLUTE LYMPHOCYTE: 11713.67 CELLS/uL
  ABSOLUTE MONOCYTE: 379.33 CELLS/uL
  ABSOLUTE SEGMENTED NEUTROPHIL: 2140.33 CELLS/uL
  BASOPHIL: 0%
  EOSINOPHIL: 0%
  ERYTHROCYTE COUNT: 5.87 x10E6/uL
  HEMATOCRIT: 37.03%
  HEMOGLOBIN: 14.47 G/DL
  LEUKOCYTE COUNT: 14.23 x10E3/uL
  LYMPHOCYTE: 82.33%
  MEAN CORPUSCULAR HEMOGLOBIN: 24.63 pg
  MEAN CORPUSCULAR HEMOGLOBIN CONCENTRATION: 39.07 G/DL
  MEAN CORPUSCULAR VOLUME: 63.17 fL
  MONOCYTE: 2.67%
  NEUTROPHIL: 15%
  NUCLEATED RED BLOOD CELLS: 0 /100WBC
  PLATELET COUNT: 1318.33 x10E3/uL
  ALANINE AMINOTRANSFERASE: 83 u/L
  ALBUMIN: 4.77 G/DL
  ALKALINE PHOSPHATASE: 581 u/L
  ASPARTATE AMINOTRANSFERASE: 86.67 u/L
  BLOOD UREA NITROGEN: 17.33 mg/dL
  CARBON DIOXIDE: 31.33 mmol/L
  CHLORIDE: 99.33 MEQ/L
  CHOLESTEROL: 70 mg/dL
  CREATINE PHOSPHOKINASE: 206 u/L
  CREATININE: 0.24 mg/dL
  GLUCOSE: 118 mg/dL
  LACTATE DEHYDROGENASE: 247.33 u/L
  LIPASE: 8.67 u/L
  PHOSPHORUS: 11.17 mg/dL
  POTASSIUM: 5.96 MEQ/L
  SODIUM: 145.9 MEQ/L
  TOTAL BILIRUBIN: 0.3 mg/dL
  TOTAL PROTEIN: 5.73 G/DL
  URIC ACID: 1.37 mg/dL
[3]
  ABSOLUTE BASOPHIL: 0 CELLS/uL
  ABSOLUTE EOSINOPHIL: 0 CELLS/uL
  ABSOLUTE LYMPHOCYTE: 19502.67 CELLS/uL
  ABSOLUTE MONOCYTE: 68 CELLS/uL
  ABSOLUTE SEGMENTED NEUTROPHIL: 3096 CELLS/uL
  BASOPHIL: 0%
  EOSINOPHIL: 0%
  ERYTHROCYTE COUNT: 5.71 x10E6/uL
  HEMATOCRIT: 35.9%
  HEMOGLOBIN: 14.6 G/DL
  LEUKOCYTE COUNT: 22.67 x10E3/uL
  LYMPHOCYTE: 86.33%
  MEAN CORPUSCULAR HEMOGLOBIN: 25.63 pg
  MEAN CORPUSCULAR HEMOGLOBIN CONCENTRATION: 40.7 G/DL
  MEAN CORPUSCULAR VOLUME: 63 fL
  MONOCYTE: 0.33%
  NEUTROPHIL: 13.33%
  NUCLEATED RED BLOOD CELLS: 0.33 /100WBC
  PLATELET COUNT: 1504 x10E3/uL
  ALANINE AMINOTRANSFERASE: 136.67 u/L
  ALBUMIN: 4.57 G/DL
  ALKALINE PHOSPHATASE: 427.67 u/L
  ASPARTATE AMINOTRANSFERASE: 109.67 u/L
  BLOOD UREA NITROGEN: 17.67 mg/dL
  CARBON DIOXIDE: 25.33 mmol/L
  CHLORIDE: 98.67 MEQ/L
  CHOLESTEROL: 83.67 mg/dL
  CREATINE PHOSPHOKINASE: 243 u/L
  CREATININE: 0.35 mg/dL
  GLUCOSE: 126 mg/dL
  LACTATE DEHYDROGENASE: 170.67 u/L
  LIPASE: 11.33 u/L
  PHOSPHORUS: 11.23 mg/dL
  POTASSIUM: 6.06 MEQ/L
  SODIUM: 143.63 MEQ/L
  TOTAL BILIRUBIN: 0.27 mg/dL
  TOTAL PROTEIN: 6 G/DL
  URIC ACID: 1.83 mg/dL

From ChEMBL document CHEMBL3885881, “DrugMatrix”
